US9611270B2, “Inhibitors of CYP17A1” (University of Kansas, priority 2014, dated 2017)
Read-outs that look alike come from different tables or passages of the source.

How the values were obtained:
[1] = molecular target: human CYP21A2 (Homo sapiens (Human), UniProt P08686); test: Analysis of 21-hydroxyprogesterone generation by CYP21A2 using GC/MS; format: biochemical
From the text: (§1) Two methods for detecting enzymatic activity were utilized. […] University of Kansas, Lawrence, K S, 2011.
(§2) Toxicol. Appl. […] Mol. Endocrinol. 2007, 21, 1958-1968.
(§3) The CYP21A2 construct that was used, CYP21A2dH, was also engineered as according to published procedures. See, e.g., Blake, L. C.; Scott, E. E. Cytochromes P450 as therapeutic targets and counter-targets for the prevention of lung cancer and treatment of steroidogenic diseases. University of Kansas, Lawrence, K S, 2012. In this construct, the “d” refers to an 18 amino acid N-terminal deletion. An N-terminal solubility tag was added, in addition to a C-terminal four-histidine tag (“H”). […] “Full-length CYP21A2” will be specifically designated when appropriate.
(§4) Endocrinology 2011, 152, 2904-2908.
(§5) GC/MS was performed on an Agilent Technologies 6850 Network GC System equipped with a 6850 series autosampler and an Agilent Technologies 5975C VL MSD with triple axis detector. The electron energy was 70 eV and the ion source temperature was 230° C. Each sample (5 μL) was injected at an injector temperature of 280° C. and separated through an Ultra-1 capillary column (25 m×0.2 mm inner diameter, 0.33-mm film thickness; Agilent Technologies). […] Helium was used as the carrier gas with a column head pressure of 210.3 kPa (column flow: 1.0 mL/min at an oven temperature of 215° C.). For quantitative analysis, the characteristic ions of the monitored steroids were determined as their poly-TMS derivatives. Product and starting material MS counts were normalized for analysis against a known amount of estriol internal standard.
(§6) Samples were prepared for GC/MS by solid phase extraction (SPE) using SUPELCO Supel™-Select HLB SPE tubes, bed weight 30 mg (Sigma Aldrich). Parallel evaporation was performed using a GeneVac EZ-2 plus evaporator. Poly-trimethylsilyl derivatization was accomplished using a 1000:8:4 (v/w/w) N-methyl-N-(trimethylsilyl) trifluoroacetamide:ammonium iodide:dithioerythritol mixture that had been stirred at room temperature for at least 12 hours (MSTFA).
(§7) For the inhibition studies, 0.5 μM progesterone was used as the substrate concentration for inhibition studies. […] Reactions were quenched 10 minutes after the addition of NADPH by the same (internal standard-containing) solution, and allowed to stand on ice for 10 minutes.
(§8) Solid phase extraction (SPE) cartridges (30 mg HLB resin, Sigma-Aldrich) were used on a parallel draining rack. SPEs were pre-equilibrated with 2×1 mL hexanes, 2×1 mL acetone, and 3×1 mL deionized water. Reaction samples (750 μL) were loaded onto individual SPE cartridges, allowed to drain, and then washed with 1 mL water. Glass vials (4 mL capacity) were placed under each tube, and samples were eluted with 4×1 mL acetone. The vials were concentrated for at least 12 hours by parallel evaporation to remove solvent and residual water. MSTFA derivatizing agent (120 μL) was added to each sample vial, which was capped and heated to 60° C. for 60 minutes, stirring by hand intermittently.
(§9) The amount of 21-hydroxyprogesterone present was determined by GC-MS analysis using single ion monitoring (M/Z 546.35, ca. 26 min retention time), and analyzed against the estriol internal standard peak (M/Z 504.30, ca. 15 min retention time). Progesterone (M/Z 458.30, ca. 16 min retention time) was detected for quality control among reactions and standards. For instance, if a sample registered no product or standard peak as well as no progesterone peak, it was discarded from analysis due to experimental error.

[2] = test system: human CYP21A2; test: as above; format: biochemical; details: for 17A1/21A2 Sel. Factor: CYP21A2 IC50 divided by CYP17A1 IC50
From the text: as §1, §2, §3, §4, §5, §6, §7, §8, §9

[3] = molecular target: human CYP17A1 (Homo sapiens (Human), UniProt P05093); test: Analysis of 17α-hydroxyprogesterone generation by CYP17A1 using HPLC
human CYP17A1, sequence (P05093 20-508): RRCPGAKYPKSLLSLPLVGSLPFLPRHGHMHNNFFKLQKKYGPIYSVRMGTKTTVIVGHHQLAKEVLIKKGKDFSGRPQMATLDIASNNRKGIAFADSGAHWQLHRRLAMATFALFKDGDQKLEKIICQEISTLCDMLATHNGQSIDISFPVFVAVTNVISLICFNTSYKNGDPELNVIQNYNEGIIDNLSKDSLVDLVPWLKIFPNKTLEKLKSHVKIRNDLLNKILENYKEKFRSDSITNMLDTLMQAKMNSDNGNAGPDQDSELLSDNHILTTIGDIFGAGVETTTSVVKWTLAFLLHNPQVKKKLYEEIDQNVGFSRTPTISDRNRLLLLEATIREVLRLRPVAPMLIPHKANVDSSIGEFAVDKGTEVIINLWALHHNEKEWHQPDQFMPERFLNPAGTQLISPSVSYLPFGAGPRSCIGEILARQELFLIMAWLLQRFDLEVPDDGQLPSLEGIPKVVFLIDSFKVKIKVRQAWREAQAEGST
From the text: Modified constructs of human CYP17A1, human CYP21A2, and human NADPH-cytochrome P450 oxidoreductase (POR) were used. These protein constructs lack a hydrophobic N-terminal transmembrane helix.
The additional A19 and H signify an N-terminal deletion of 19 amino acids for solubility (the “A19”) and a C-terminal four-histidine tag for purification (the “H”). Hereafter in the discussion of the assays below, “CYP17A1” will refer to CYP17A1HΔ19 for simplicity.
The human POR construct utilized bears an N-terminal truncation of a transmembrane helix (Δ27) to increase expression levels, and a K59Q mutation to prevent proteolysis.
Data from at least two replicates with 8 or more activity points each were averaged and analyzed for standard error.
The assays were carried out with 50 pmol of purified CYP17A1 in a 1:4 ratio with POR. The protein stocks were gently mixed together by pipetting and incubated on ice for 20 minutes. This reconstituted protein system was added to buffer (50 mM Tris, pH 7.4 and 5 mM MgCl2) containing progesterone (0-50 μM) for a total volume of 500 μL. For the inhibition studies, 50 μM progesterone was used.

[4] = CYP17A1 IC50, progesterone 17α-hydroxylation, 50 μM progesterone, purified CYP17A1 with POR 1:4, ± standard error

human CYP21A2 (Homo sapiens (Human), UniProt P08686), sequence (P08686 19-495): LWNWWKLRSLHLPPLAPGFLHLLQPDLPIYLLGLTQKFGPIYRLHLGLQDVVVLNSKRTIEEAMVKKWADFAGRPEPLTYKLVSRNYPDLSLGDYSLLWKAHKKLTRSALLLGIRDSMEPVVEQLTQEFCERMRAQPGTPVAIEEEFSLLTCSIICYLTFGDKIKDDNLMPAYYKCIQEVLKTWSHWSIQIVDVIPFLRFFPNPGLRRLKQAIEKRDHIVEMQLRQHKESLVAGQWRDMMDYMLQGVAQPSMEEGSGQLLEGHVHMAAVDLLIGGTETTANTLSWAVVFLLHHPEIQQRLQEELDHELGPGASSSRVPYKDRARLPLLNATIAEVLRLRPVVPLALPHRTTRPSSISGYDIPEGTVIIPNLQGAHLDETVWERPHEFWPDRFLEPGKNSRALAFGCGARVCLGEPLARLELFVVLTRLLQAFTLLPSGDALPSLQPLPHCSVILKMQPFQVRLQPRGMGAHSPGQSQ

Compound | 17A1/21A2 Sel. Factor [2] | IC50 [3, 4] | IC50 [3] | also measured
C[C@]12CC[C@H](O)CC1=C(C(N)=O)C[C@@H]1[C@@H]2CC[C@]2(C)C(c3cccnc3)=CC[C@@H]12 [Compound 42, 3β-Hydroxy-17-(3-pyridyl)-androst-5,16-dien-6-amide] | 72.2 | 120 ± 12 nM |  | IC50 [1]: 8.7 µM; CYP17A1/CYP21A2 selectivity relative to abiraterone ([2]; times greater than abiraterone): about 30 times
C[C@]12CC[C@H](O)C[C@@H]1C(=O)C[C@@H]1[C@@H]2CC[C@]2(C)C(c3cccnc3)=CC[C@@H]12 |  |  | 208 ± 12 nM | 
C[C@]12CC[C@H]3[C@@H](C[C@@H]4O[C@@]45C[C@@H](O)CC[C@]35C)[C@@H]1CC=C2c1cccnc1 |  | 428 ± 20 nM |  | 
C[C@]12CC[C@H](O)C[C@@H]1NC(=O)C[C@@H]1[C@@H]2CC[C@]2(C)C(c3cccnc3)=CC[C@@H]12 |  |  | 5410 nM | 
CC(=O)N1CC[C@@H]2[C@H](CC[C@]3(C)C(c4cccnc4)=CC[C@@H]23)[C@@]2(C)CC[C@H](O)C[C@H]12 |  |  | 1380 nM | 
C[C@]12CC[C@H](O)CC1=C(C#N)C[C@@H]1[C@@H]2CC[C@]2(C)C(c3cccnc3)=CC[C@@H]12 [Compound 38, 6-Cyano-17-(3-pyridyl)-androst-5,16-dien-3β-ol] |  | 174 ± 8 nM |  | 
CNC(=O)c1ccc2cc([C@@]3(O)CCn4cncc43)ccc2c1 [orteronel, reference compound] | 1.0 |  |  | CYP17A1 progesterone hydroxylation inhibitory activity (in words) ([3]; progesterone 17α-hydroxylation): significantly less potent
C[C@]12CC[C@H](O)CC1=C([N+](=O)[O-])C[C@@H]1[C@@H]2CC[C@]2(C)C(c3cccnc3)=CC[C@@H]12 [Compound 41, 6-Nitro-17-(3-pyridyl)-androst-5,16-dien-3β-ol] | 4.5 | 183 ± 23 nM |  | IC50 [1]: 0.831 ± 0.096 µM
C[C@]12CC[C@H](O)C[C@@H]1/C(=N/O)C[C@@H]1[C@@H]2CC[C@]2(C)C(c3cccnc3)=CC[C@@H]12 [Compound 33, 6-Oxime-17-(3-pyridyl)-androst-16-en-3β-ol] |  | 150 ± 10 nM | 120 to 183 nM | IC50 [1]: 10.3 µM
C[C@]12CC[C@H](O)CC1C(C#N)=C[C@@H]1[C@@H]2CC[C@]2(C)C(c3cccnc3)=CC[C@@H]12 (stereo partly drawn) [Compound 37, 6-Cyano-17-(3-pyridyl)-androst-6,16-dien-3β-ol] |  | 244 ± 14 nM |  | 
C[C@]12CC[C@H](O)CC1=CC[C@@H]1[C@@H]2CC[C@]2(C)C(n3cnc4ccccc43)=CC[C@@H]12 [galaterone, reference compound] | 0.9 | 282 ± 16 nM |  | 
CN[C@H]1C[C@@H]2[C@H](CC[C@]3(C)C(c4cccnc4)=CC[C@@H]23)[C@@]2(C)CC[C@H](O)CC12 (stereo partly drawn) |  |  | 3970 nM | 
C[C@]12CC[C@H](O)CC1=CC[C@@H]1[C@@H]2CC[C@]2(C)C(c3cccnc3)=CC[C@@H]12 [abiraterone, 17-(3-Pyridyl)-androst-5,16-dien-3β-ol, reference compound] | 2.3 |  | 130 nM | 
C[C@]12CC[C@H](O)C[C@@H]1n1nnnc1C[C@@H]1[C@@H]2CC[C@]2(C)C(c3cccnc3)=CC[C@@H]12 |  |  | 199 ± 13 nM | 
